Measured values from patent US10611774B2, “Salt form of DPPIV inhibitor and preparation method thereof” (SHANGHAI INSTITUTE OF MATERIA MEDICA, CHINESE ACADEMY OF …, priority 2016, dated 2020).

What was measured:
ICR mice = experiment: Acute toxicity test of ICR mice; assay type: in vivo; conditions: 300 mg/kg administration group
DPP IV [1] = molecular target: T1, DPP IV (Rattus norvegicus, UniProt P14740); experiment: Inhibition of DPP IV activity in normal rat plasma; assay type: in vivo
T1 construct: from tissue; host or cells: plasma of normal rats
T1 sequence (P14740 37-767 limits assumed): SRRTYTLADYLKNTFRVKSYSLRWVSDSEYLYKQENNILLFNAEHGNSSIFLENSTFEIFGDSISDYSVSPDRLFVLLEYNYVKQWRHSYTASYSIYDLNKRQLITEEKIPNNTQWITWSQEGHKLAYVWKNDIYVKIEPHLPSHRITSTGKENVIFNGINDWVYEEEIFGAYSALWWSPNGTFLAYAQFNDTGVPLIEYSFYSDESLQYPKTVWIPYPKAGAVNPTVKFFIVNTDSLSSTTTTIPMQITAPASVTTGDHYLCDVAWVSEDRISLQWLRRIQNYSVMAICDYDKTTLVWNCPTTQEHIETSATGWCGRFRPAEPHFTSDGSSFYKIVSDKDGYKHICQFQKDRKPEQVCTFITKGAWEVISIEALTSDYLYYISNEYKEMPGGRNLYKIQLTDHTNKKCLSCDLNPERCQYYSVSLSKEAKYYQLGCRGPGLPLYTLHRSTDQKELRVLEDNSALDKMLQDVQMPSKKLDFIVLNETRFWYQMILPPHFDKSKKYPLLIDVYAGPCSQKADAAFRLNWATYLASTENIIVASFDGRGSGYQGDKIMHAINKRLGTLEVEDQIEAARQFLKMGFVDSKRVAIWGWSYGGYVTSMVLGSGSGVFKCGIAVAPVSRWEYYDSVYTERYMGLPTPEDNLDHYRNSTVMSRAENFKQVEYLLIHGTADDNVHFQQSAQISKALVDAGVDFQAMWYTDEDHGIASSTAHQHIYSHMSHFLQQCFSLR

db/db mice = experiment: Fasting blood glucose of gene-deficient db/db mice, chronic administration; assay type: in vivo
DPP IV [2] = molecular target: DPP IV (Homo sapiens, UniProt P27487); experiment: DPP IV inhibitory activity and selectivity in vitro; assay type: biochemical
DPP IV (Homo sapiens, UniProt P27487), sequence (P27487 whole entry, species assumed): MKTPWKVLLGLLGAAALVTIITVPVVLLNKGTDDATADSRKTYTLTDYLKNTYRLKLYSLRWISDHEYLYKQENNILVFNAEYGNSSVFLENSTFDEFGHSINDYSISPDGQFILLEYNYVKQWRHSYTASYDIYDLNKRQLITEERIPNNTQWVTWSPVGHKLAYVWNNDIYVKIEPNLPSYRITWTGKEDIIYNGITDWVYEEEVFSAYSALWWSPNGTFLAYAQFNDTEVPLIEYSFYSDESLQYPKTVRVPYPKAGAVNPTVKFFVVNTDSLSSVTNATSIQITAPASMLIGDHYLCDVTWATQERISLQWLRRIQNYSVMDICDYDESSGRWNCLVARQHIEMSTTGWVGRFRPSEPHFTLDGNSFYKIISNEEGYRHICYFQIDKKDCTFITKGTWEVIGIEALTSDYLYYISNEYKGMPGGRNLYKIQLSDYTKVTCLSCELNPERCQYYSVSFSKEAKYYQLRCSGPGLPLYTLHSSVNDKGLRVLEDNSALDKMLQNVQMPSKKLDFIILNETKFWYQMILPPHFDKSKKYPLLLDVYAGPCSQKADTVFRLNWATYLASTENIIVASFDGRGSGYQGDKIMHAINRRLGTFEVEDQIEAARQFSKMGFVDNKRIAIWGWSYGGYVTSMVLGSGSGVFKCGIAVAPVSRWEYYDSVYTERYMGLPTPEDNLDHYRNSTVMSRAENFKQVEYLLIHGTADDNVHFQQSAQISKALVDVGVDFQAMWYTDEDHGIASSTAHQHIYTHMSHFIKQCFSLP

Pharmacokinetics in rats = assay type: in vivo
DPP IV [3] = molecular target: T2, DPP IV (Mus musculus, UniProt P28843); experiment: Inhibition of DPP IV activity in normal mice plasma; assay type: in vivo
T2 construct: from tissue; host or cells: plasma of normal mice
T2 sequence (P28843 37-760 limits assumed): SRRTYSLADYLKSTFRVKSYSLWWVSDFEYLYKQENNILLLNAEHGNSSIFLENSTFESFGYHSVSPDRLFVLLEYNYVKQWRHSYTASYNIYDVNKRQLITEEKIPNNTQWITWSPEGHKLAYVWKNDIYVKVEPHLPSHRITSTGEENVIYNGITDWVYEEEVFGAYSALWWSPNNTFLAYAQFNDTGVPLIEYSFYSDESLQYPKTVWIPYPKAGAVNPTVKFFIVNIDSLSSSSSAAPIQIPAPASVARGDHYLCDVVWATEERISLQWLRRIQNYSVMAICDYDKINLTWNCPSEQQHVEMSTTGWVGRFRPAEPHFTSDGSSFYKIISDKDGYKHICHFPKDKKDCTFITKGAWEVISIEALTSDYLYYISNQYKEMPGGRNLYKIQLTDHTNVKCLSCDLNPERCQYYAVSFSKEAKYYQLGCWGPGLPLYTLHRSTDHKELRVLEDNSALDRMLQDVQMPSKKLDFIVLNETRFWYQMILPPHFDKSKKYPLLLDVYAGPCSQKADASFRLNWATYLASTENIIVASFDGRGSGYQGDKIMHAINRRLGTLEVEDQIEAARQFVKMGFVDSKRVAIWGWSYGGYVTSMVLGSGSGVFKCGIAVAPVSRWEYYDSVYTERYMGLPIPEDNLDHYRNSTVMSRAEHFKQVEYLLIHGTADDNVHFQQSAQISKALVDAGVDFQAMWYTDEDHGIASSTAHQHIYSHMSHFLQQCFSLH

Pharmacokinetics in dogs = assay type: in vivo
rats = experiment: Subacute toxicity experiment of rats; assay type: in vivo; conditions: 150 mg/kg orally administrated group
ob/ob mice = experiment: Fasting blood glucose of ob/ob mice, chronic administration; assay type: in vivo
normal ICR mice = experiment: Oral glucose tolerance of normal ICR mice; assay type: in vivo
[4] = Hygroscopicity analysis (DVS); assay type: physicochemical; conditions: for hygroscopicity (DVS): 25° C.; for water absorbed: at 80% RH; for humidity variation range: conventional storage humidity range
Description: Dynamic vapor absorption (DVS) test/water absorption test rapidly measures the increase and loss of the moisture in the sample caused by flow carrier gas with set relative humidity (RH), wherein the sample is placed on a digital microbalance with high sensitivity and high stability at a self-suspension state, and then the adsorption/desorption of water vapor is measured by measuring the increase/decrease of mass of the material, thereby determining the hygroscopicity of the sample.
In the present invention, the test parameters of the DVS are as follows: Instrument type: SMS DVS Intrinsic; Non-hydrate: 0 to 95%-0% RH; Temperature: 25° C.; Hydrate: 40 to 95%-0% RH; Temperature: 25° C.

[5] = versus sitagliptin and vildagliptin

Compound: COC(=O)c1cc2nc(N3CCC[C@@H](N)C3)n(Cc3ccccc3C#N)c(=O)c2s1 [compound of formula I, (R)-methyl-2-(3-aminopiperidin-1-yl)-3-(2-cyanobenzyl)-4-carbonyl-3,4-dihydrothiophene[3,2-d]pyrimidine-6-carboxylic acid]
- acute toxicity, animal death (ICR mice): no animal died
- DPP IV inhibitory activity in animals compared with alogliptin (DPP IV [1]): superior to the marketed drug alogliptin
- inhibition of DPP IV activity in plasma (DPP IV [1]): effective in inhibiting DPP IV activity
- effect on fasting blood glucose (db/db mice): reduce its fasting blood glucose
- fasting blood glucose effect compared with positive control alogliptin (db/db mice): comparable to the positive control drug alogliptin
- DPP IV inhibitory activity (DPP IV [2]; in vitro): up to nanomolar level
- DPP IV inhibitory activity in vitro compared with marketed drugs (DPP IV [2]; [5]): superior to the marketed drugs, sitagliptin and vildagliptin
- selectivity in vitro compared with marketed drugs (DPP IV [2]; [5]): superior to the marketed drugs, sitagliptin and vildagliptin
- AUC0-t compared with alogliptin (Pharmacokinetics in rats): superior to those of the marketed drug alogliptin
- half-life compared with alogliptin (Pharmacokinetics in rats): superior to those of the marketed drug alogliptin
- DPP IV inhibitory activity in animals compared with alogliptin (DPP IV [3]): superior to the marketed drug alogliptin
- inhibition of DPP IV activity in plasma (DPP IV [3]): effective in inhibiting DPP IV activity
- AUC0-t compared with alogliptin (Pharmacokinetics in dogs): superior to those of the marketed drug alogliptin
- half-life compared with alogliptin (Pharmacokinetics in dogs): superior to those of the marketed drug alogliptin
- subacute toxicity (rats): no obvious toxicity reaction
- effect on fasting blood glucose (ob/ob mice): effectively decrease fasting blood glucose
- fasting blood glucose effect compared with positive control alogliptin (ob/ob mice): superior to the positive control drug alogliptin
- effect on oral glucose tolerance (normal ICR mice): increase the oral glucose tolerance of normal ICR mice in a dose-dependent manner
- onset dose, oral glucose tolerance (normal ICR mice): 0.1 mg/kg
- oral glucose tolerance effect compared with alogliptin (normal ICR mice): better than alogliptin

Compound: COC(=O)c1cc2nc(N3CCC[C@@H](N)C3)n(Cc3ccccc3C#N)c(=O)c2s1.Cl [hydrochloride, hydrochloride of (R)-methyl-2-(3-aminopiperidin-1-yl)-3-(2-cyanobenzyl)-4-carbonyl-3,4-dihydrothiophene [3,2-d] pyrimidine-6-carboxylic acid]
- hygroscopicity (DVS) [4]: slightly hygroscopic
- water absorbed [4]: 2.54%
- humidity variation range [4]: less than 3.0%

Compound: COC(=O)c1cc2nc(N3CCC[C@@H](N)C3)n(Cc3ccccc3C#N)c(=O)c2s1.O=C(O)/C=C\C(=O)O [maleate, maleate of (R)-methyl-2-(3-aminopiperidin-1-yl)-3-(2-cyanobenzyl)-4-carbonyl-3,4-dihydrothiophene[3,2-d]pyrimidine-6-carboxylic acid]
- hygroscopicity (DVS) [4]: slightly hygroscopicity
- water absorbed [4]: 1.57%
- humidity variation range [4]: less than 2.0%

Compound: COC(=O)c1cc2nc(N3CCC[C@@H](N)C3)n(Cc3ccccc3C#N)c(=O)c2s1.O=P(O)(O)O [phosphate, phosphate of (R)-methyl-2-(3-aminopiperidin-1-yl)-3-(2-cyanobenzyl)-4-carbonyl-3,4-dihydrothiophene[3,2-d]pyrimidine-6-carboxylic acid]
- hygroscopicity (DVS) [4]: slightly hygroscopic
- humidity variation range [4]: small

Compound: glycolate of (R)-methyl-2-(3-aminopiperidin-1-yl)-3-(2-cyanobenzyl)-4-carbonyl-3,4-dihydrothiophene[3,2-d]pyrimidine-6-carboxylic acid
- hygroscopicity (DVS) [4]: slightly hygroscopic
- water absorbed [4]: 1.23%
- humidity variation range [4]: less than 2.0%
